The test system of data set [1] is MDA/LCC6 cells. The data set can be described thus: Effect on paclitaxel IC50 in non-P-gp-expressing cells. The data set is classed as cell-based, human. As to conditions: breast carcinoma cells that do not express P-gp, FIG. 1. As for the experimental part:
The compound of Formula 2 was able to reverse resistance to all classes of P-gp substrates in a wide variety of tumor cell types with EC50s in the low nM range (Table 2). Similar results were obtained with etoposide in several models. Complete reversal of MDR was typically seen with Formula 2 doses between 0.25 and 1.0 μM. Examples with cells expressing extremely high levels of P-gp as a result of drug selection (CEM/VLB1000), moderate levels of P-gp from gene transduction (MDA/LCC6 ^MDR1), and low (intrinsic) levels of P-gp (HCT-15) are illustrated in Table 2. The compound of Formula 2 had no effect on doxorubicin or paclitaxel IC50s in non-P-gp-expressing CCRF-CEM and MDA/LCC6 cells, respectively (FIG. 1, for MDA/LCC6 cells).
Cell proliferation IC50s and MDR reversal EC50s were determined from 3-day dose-response curves carried out in triplicate in 96-well plates essentially as described by Monks et al. (J. Natl. Cancer Inst., 83:757-66, 1991). Cells were plated in standard growth medium at 2.5 or 5.0×10^4 per well (CCRF-CEM and CEM/VLB1000 respectively) or 5×10^3 per well (all other cell lines) in a final volume of 100 μl. After a 2 h incubation for non-adherent cells and overnight incubation for adherent cells, the initial cell density was determined by fluorescence readout of Alamar Blue metabolism. […] Final cell density was determined with Alamar Blue. […]

Data set [2] has as its system MDA/LCC6^MDR1 tumors. The data set can be described thus: In vivo antitumor efficacy, orthotopic MDA/LCC6^MDR1 tumors. Further details: species or system SCID/RAG2 mice. As for the experimental part:
Anti-tumor efficacy experiments with orthotopic MDA/LCC6 and MDA/LCC6^MDR1 tumors were conducted in female SCID/RAG2 mice. Ascites propagated cells (2×10^6 in 50 μl) were injected into mammary fat pads bilaterally on day 0 before randomization into groups of 5 mice per group. Paclitaxel (12 mg/kg/dose) was administered QD i.v. (tail vein) in 200 μl saline/Cremophor/ethanol (8/1/1 by volume) on days 5, 12, 19, and 26. The compound of Formula 2-free base (30 mg/kg/dose) was administered BID p.o. by gavage in 100 μl PEG 400/Tween 20 (9/1 by volume) on days 4-6, 11-13, 18-20, and 25-27. Mean body weights were recorded at least every other day. Tumor weight was monitored approximately every other day by caliper measurements and calculated according to the formula (Tumor weight =(length×width^2)÷2). This conversion formula was verified by comparing the calculation derived tumor weights to excised and weighed tumors. Animals bearing ulcerated tumors or where tumor weight exceeded 10% of the animal's body weight were terminated. The weights of the bilateral tumors were averaged for each mouse and mean tumor weights for each treatment group±standard error of the mean were calculated. Statistical analysis was carried out by Mann-Whitney test using GraphPad Prism software (San Diego, Calif.).
The compound of Formula 2 was administered the afternoon before, 2 hours before and 6 hours after each paclitaxel dose. The ability of orally administered Formula 2 compound to reverse MDR in solid tumors in vivo was assessed with the MDA/LCC6^MDR1 model. Because the compound of Formula 2 produced no effect on paditaxel blood levels, focus on up-front therapy (for naive animals) or minimal residual disease models was maintained, as opposed to established tumors. MDA/LCC6^MDR1 cells that express P-gp were resistant to paclitaxel treatment in vitro and this resistance was reversed by the compound of Formula 2 (FIG. 1). […] Similar results were obtained in three independent experiments with two different strains of immunocompromised mice (SCID/RAG-2 and athymic). […]

In data set [3] the test system is MCF-7. The data set can be described thus: Cell proliferation assay. The data set is classed as cell-based. As to conditions: Homo sapiens, MCF7; Breast carcinoma MCF-7, P-gp Neg; read-out: Formula 2 compound IC50 (inhibition of growth). As for the experimental part: (§1) Cell proliferation IC50s and MDR reversal EC50s were determined from 3-day dose-response curves carried out in triplicate in 96-well plates essentially as described by Monks et al. (J. Natl. Cancer Inst., 83:757-66, 1991). Cells were plated in standard growth medium at 2.5 or 5.0×10^4 per well (CCRF-CEM and CEM/VLB1000 respectively) or 5×10^3 per well (all other cell lines) in a final volume of 100 μl. After a 2 h incubation for non-adherent cells and overnight incubation for adherent cells, the initial cell density was determined by fluorescence readout of Alamar Blue metabolism. The compound of Formula 2, cytotoxic agents, or compound vehicles were added to duplicate plates and the incubation was continued for an additional 72 h. Final cell density was determined with Alamar Blue. In some experiments, a standard endpoint assay was used without analysis of initial cell density with Alamar Blue. Similar results were obtained with the two assays. EC50s were derived by nonlinear regression analysis assuming a sigmoidal dose-response using GraphPad Prism Software (San Diego, Calif.). Proliferation assays capable of measuring both cytostatic and cytotoxic responses were carried out as described herein with 15 non-transformed and transformed cell lines, including primary fibroblasts, non-transformed smooth muscle, leukemia, breast, colon, ovarian and uterine carcinoma cells (±P-gp expression). Although the compound of Formula 2 reversed P-gp-mediated MDR in the low nanomolar concentration range, the compound was non-cytotoxic by itself at doses up to 100 μM in all cell lines. […] IC50s for non-specific cytotoxicity were similar in matched cell lines plus and minus P-gp expression. […] If it were, some consistent degree of resistance would be expected in P-gp expressing cells.

Data set [4] can be described thus: Cell proliferation assay. It counts as cell-based. To be noted: human, MDA/LCC6^MDR1 breast carcinoma cells (P-gp positive); Breast carcinoma MDA/LCC6^MDR1, P-gp Pos; read-out: Formula 2 compound IC50 (inhibition of growth). As for the experimental part: as §1
The subject of data set [5] is HCT-15. The experiment in a line: Cell proliferation assay. To be noted: Homo sapiens; Colorectal carcinoma HCT-15, P-gp Pos; read-out: Formula 2 compound IC50 (inhibition of growth). The data set is classed as cell-based. As for the experimental part:
as §1

Data set [6] concerns CEM/VLB1000. The data set can be described thus: Cell proliferation assay. The data set is classed as cell-based. To be noted: Homo sapiens; Lymphoma CEM/VLB1000, P-gp Pos; read-out: Formula 2 compound IC50 (inhibition of growth). As for the experimental part:
as §1

For data set [7], the system named is MES-SA. The data set can be described thus: Cell proliferation assay. To be noted: Homo sapiens; Uterine carcinoma MES-SA, P-gp Neg; read-out: Formula 2 compound IC50 (inhibition of growth). The data set is classed as cell-based. As for the experimental part:
as §1

The test system of data set [8] is HISM. The experiment in a line: Cell proliferation assay. It counts as cell-based. To be noted: Homo sapiens; Smooth muscle HISM; read-out: Formula 2 compound IC50 (inhibition of growth). As for the experimental part: as §1
Data set [9] deals with MDA/LCC6. The experiment in a line: Cell proliferation assay. The data set is classed as cell-based. To be noted: Homo sapiens, LCC-6; Breast carcinoma MDA/LCC6, P-gp Neg; read-out: Formula 2 compound IC50 (inhibition of growth). As for the experimental part:
as §1

The subject of data set [10] is SW620. The data set can be described thus: Cell proliferation assay. It counts as cell-based. As to conditions: Homo sapiens, SW-620; Colorectal carcinoma SW620, P-gp Neg; read-out: Formula 2 compound IC50 (inhibition of growth). As for the experimental part:
as §1

The subject of data set [11] is HT-29. The experiment in a line: Cell proliferation assay. It counts as cell-based. To be noted: Homo sapiens; Colorectal carcinoma HT-29, P-gp Neg; read-out: Formula 2 compound IC50 (inhibition of growth). As for the experimental part:
as §1

The results in this text go back to patent publication US20070203215A1, “Methods & Compositions For Enhancing Pharmaceutical Treatments” (Taiji Biomedical, Inc., priority 1999, published 2007).

As to `CCOC/C=C/c1ccc(-c2nc(-c3ccc(NC(C)C)cc3)c(-c3ccc(NC(C)C)cc3)[nH]2)cc1` [Formula 2 compound], the “In vitro anti-tumor activity of paclitaxel” value in [1] is given as “did not enhance”. Further, the “In vivo tumor growth” value in [2] (Formula 2 compound and paclitaxel combined, persisted at least two weeks after last paclitaxel dose) is “statistically significant inhibition of tumor growth”. Besides, the “In vivo tumor growth compared to the vehicle control” value in data set [2] (single agent alone, paclitaxel 12 mg/kg i.v., Formula 2 free base 30 mg/kg p.o.) was “no significant effect”. In addition, the IC50 is 30 µM in data set [3]; 6 µM in data set [5]; 32 µM in [6]; 51 µM in data set [7]; over 100 µM in [8]; over 100 µM in data set [9]. The results for the concentration for half-maximal inhibition (IC50) in [10] and in [11] were over 100 µM and 12 µM, respectively. The IC50 at 72 h in [4] was over 100 µM.

The term IC50 denotes the concentration at which inhibition is half-maximal.
